Source: ChEMBL document CHEMBL4219130, “Two new lathyrane-type diterpenoid glycosides with IL-6 production inhibitory activity from the roots of Euphorbia kansui” (Bioorg Med Chem Lett, 2018)
pIC50: −log10 of the molar value. The source made the active and inactive calls. No cut-off for these calls is given here.

Columns and labels:
Assay type in all cases: functional, cell-based
[1] = test system: HMC1; assay: Antiinflammatory activity in human HMC1 cells assessed as reduction in PMA/ionophore A23187-induced IL-6 production
[2] = test system: HMC1; assay: Antiinflammatory activity in human HMC1 cells assessed as reduction in PMA/ionophore A23187-induced TNFalpha mRNA expression at 0.8 to 20 uM pretreated for 30 mins followed by PMA/ionophore challenge measured after 24 hrs by real-time PCR analysis
[3] = test system: HMC1; assay: Antiinflammatory activity in human HMC1 cells assessed as reduction in PMA/ionophore A23187-induced IL-6 mRNA expression at 0.8 to 20 uM pretreated for 30 mins followed by PMA/ionophore challenge measured after 24 hrs by real-time PCR analysis
[4] = test system: HMC1; assay: Antiinflammatory activity in human HMC1 cells assessed as reduction in PMA/ionophore A23187-induced IL-1beta mRNA expression at 0.8 to 20 uM pretreated for 30 mins followed by PMA/ionophore challenge measured after 24 hrs by real-time PCR analysis

Row | SMILES | pIC50 [1] | Activity [2] | Activity [3] | Activity [4]
1 | C/C1=C\C2=C(C[C@H](C)C2=O)[C@@H](O)[C@H](C)C[C@@H]2[C@H](C[C@H]1O)[C@@]2(C)CO[C@@H]1O[C@H](CO)[C@@H](O)[C@H](O)[C@H]1O | 5.71 |  |  | 
2 | C/C1=C\C2=C(C[C@H](C)C2=O)[C@@H](O[C@@H]2O[C@H](CO)[C@@H](O)[C@H](O)[C@H]2O)[C@H](C)C[C@@H]2[C@H](C[C@H]1O)[C@@]2(C)CO | 5.53 | Active | Active | Active
